{
  "source": "patent US20240100062A1",
  "about": "“Methods of Treatment With an Iboga Alkaloid” (priority 2022, published 2024)",
  "key": {"[1]": {"system": "special operations veterans", "parameters": "species or system human", "conditions": "in vivo"}, "[2]": {"system": "special operations veterans", "experiment": "Hopkins Verbal Learning Test-Revised (HVLT-R), Example 1 study", "assay_type": "in vivo, human"}, "[3]": {"system": "special operations veterans", "experiment": "Hamilton Anxiety Rating Scale (HAM-A), Example 1 study", "assay_type": "in vivo, human", "conditions": "for HAM-A score, mean: p(FDR) <0.001", "description": "With subjects in the fasting state, an intravenous infusion of 1 gram of magnesium sulfate was administered 1-2 hours prior to treatment. […] Medical staff (MD, RN, or EMT) were onsite at a ratio of at least 1 staff per 2 patients throughout treatment for monitoring and management, but no specific coaching or psychological support was provided during treatment.\nPost treatment, each subject was assessed four days after treatment, one month after treatment, and, if willing, one year after treatment. The post-treatment assessments conducted at four days and at one month after treatment included neuropsychological testing, measures of PTSD, depression, anxiety, mystical experiences, functional imaging and EEG. Post-treatment assessments conducted at one year after treatment included PTSD, depression, and anxiety measures.\nClinician administered scales included CAPS-5 (Clinician-administered PTSD Scale for DSM-5), which is a gold standard assessment of PTSD symptom severity; MADRS (Montgomery-Asberg Depression Rating Scale), a measure for depressive symptom severity; and Hamilton-Anxiety Rating Scale (HAM-A) (Shear, M. K. et al., Depress. Anxiety 13, 166-178 (2001)) a measure for anxiety symptom severity; SCID-5 (Structured Clinical Interview for DSM-5) Overview for a historical and environmental context of symptom presentation; MINI DSM-5 (Mini International Neuropsychiatric Interview from DSM-5) for a structured psychodiagnostics assessment; BAT-L (Boston Assessment of TBI—Lifetime) for a lifetime history of TBI and blast exposure; and Ohio State University TBI Identification Method (Short Form) for a lifetime history of TBI. MADRS testing provides an indication of depressive symptoms, CAPS-5 provides an indication of PTSD and SIGH-A provides an indication of anxiety. Collectively these overlap to provide indication of mood, concentration, sleep and tension.\nTo assess anxiety symptoms, the Hamilton Anxiety Rating Scale was used. This scale includes 14-items assessing both psychic and physical symptoms of anxiety. Items are rated on a scale from 0 (no symptoms) to 4 (severe symptoms). Total score ranges were: no or minimal anxiety (≤7), mild (8-14), moderate (15-23), and severe anxiety symptoms (≥24) (Matza et al., Int. J Methods Psychiatr. Res. 19, 223-232 (2010))."}, "[4]": {"system": "special operations veterans", "experiment": "Structural T1w MRI, FreeSurfer regional volume and cortical thickness", "assay_type": "in vivo, human", "description": "Structural imaging of the brain was also conducted on some of the subjects of Example 1. Gray matter constitutes about 40% of the brain and white matter constitutes about 60% of the brain. Gray matter contains most of the brain's neuronal cell nodes, it is fully developed once a person reaches their 20's and interprets sensor information from various parts of the body. White matter is made up of bundles which connect various gray matter areas, it develops throughout the 20's and peaks in middle age, Typical metrics analyzed in anatomical (T1-weighted, “T1w”) imaging include volume and/or shape of nuclei (e.g. caudate), volume and/or shape of ventricles of the brain, and cortical thickness (mm). These metrics can be used to study normal and abnormal neuroanatomy and are primarily used to quantify gray matter. A tool called FreeSurfer was applied to images for a T1w structural analysis (volume, cortical thickness) to adjust for bias, remove non-brain matter, segments by tissue, parcels the brain into standardized regions, and provides measurements of those regions. FreeSurfer measurements of whole brain volume, volume by tissue (gray, white, CSF), estimated intracranial volume (ICV), subcortical gray matter volume, cortical volume by region were done. […] In particular, analysis was done to determine if there was any loss in gray matter volume or cortical thickness, whether there was a loss in white matter volume or an increase in presence of white matter hypotensities.\nThe fMRI images were also inspected to determine the difference in volume in regional areas of the brain from baseline to one month after treatment. FIG. 8A is a bar graph showing the effect size of a change in volume in 47 brain regions indicated along the x-axis. […] The fMRI images were also inspected for whole brain thickness at baseline and one month after treatment. […] FIG. 8B is a bar graph showing the effect size of a cortical thickness change for the brain regions indicated along the x-axis, from baseline to one month after treatment. […] The right and left parahippocampal gyrus are involved in visuospatial processing, including scene perception, navigation, and emotional contextualization. The left orbitofrontal gyrus is involved in impulse control and reward valuation. The left insular cortex is associated with both the affective-perceptual and cognitive-evaluative forms of empathy, as well as awareness of hunger, pain and fatigue. The left entorhinal cortex is a widespread network hub for memory, navigation, and perception of time."}, "[5]": {"system": "special operations veterans", "experiment": "Lag projection analysis of BOLD fMRI", "assay_type": "in vivo, human", "conditions": "baseline vs about four days post treatment; left orbitofrontal gyrus (lateral and anterior) and inferior frontal gyrus (orbital and triangular); fwec p<0.001", "description": "fMRI data was also analyzed to inspect activity patterns as a function of time. A lag projection analysis measures temporal dynamics of blood oxygen level-dependent (BOLD) fMRI (Mitra et al., PNAS, E2235-E2244, 2015). Directed flow transfer of information is analyzed by comparing lag-correlation shift between voxel pairs. The average lag structure of a voxel indicates relative earliness or lateness in the brain, as a measure of whether the region is a source or sink of information. A paired T-test of fMRI images at baseline and about four days post treatment was done. […] These regions are involved in language formation, response inhibition and regulating goal-directed behavior. Slowing may reflect sustained processing and influence over the brain across long time scales."}, "[6]": {"system": "cortical neuron", "conditions": "in vitro; cited from earlier work"}, "[7]": {"system": "humans", "conditions": "in vivo; cited from earlier work"}},
  "note": "“And” between values parts separate entries of the source, which are not always exact repeats. Identical values can stand only once.",
  "data": [
    {"smiles": "CCC1CC2CC3c4[nH]c5ccc(OC)cc5c4CCN(C2)C13", "note": "(stereo not shown) [ibogaine, Ibogaine]", "values": [
      {"measurement": "Detection (CPT-3 Detection), D", "setting": "[1]", "result": 0.86},
      {"measurement": "Reaction Time (CPT-3 Reaction Time), D", "setting": "[1]", "result": "0.52 and 0.29"},
      {"measurement": "Reaction Time (CPT-3 Reaction Time), mean ± SD", "setting": "[1]", "result": "44.1 ± 6.8 T score and 46.4 ± 8.1 T score"},
      {"measurement": "Slowing of reaction time, D", "setting": "[1]", "result": "0.29-0.52"},
      {"measurement": "Sustained Attention (CPT-3 Hit Reaction Time Block Change), mean ± SD", "setting": "[1]", "result": "50.8 ± 7.9 T score and 51.2 ± 7.7 T score"},
      {"measurement": "Verbal Memory (HVLT-R), mean ± SD", "setting": "[2]; 1-wk post, baseline 47.4 ± 10.1, p(FDR) 0.583", "result": "49.0 ± 9.2", "unit": "T score"},
      {"measurement": "Verbal Memory (HVLT-R), D", "setting": "[2]; baseline vs 1-month post", "result": 0.47},
      {"measurement": "Verbal Memory (HVLT-R), D", "setting": "[2]; baseline vs 1-wk post", "result": 0.17},
      {"measurement": "Verbal memory improvement", "setting": "[2]; one-month follow-up", "result": "significant improvement"},
      {"measurement": "HAM-A score, mean", "setting": "[3]; 1-mo. post, SD 4.6, baseline 20.7 ± 8.6, N 28, only participants with mild TBI", "result": 3.7},
      {"measurement": "HAM-A score, mean", "setting": "[3]; 1-mo. post, SD 6.3, baseline 23.8 ± 7.6, N 14, only participants meeting diagnostic criteria per MINI at baseline", "result": 5.1},
      {"measurement": "HAM-A % Reduction vs Baseline, mean", "setting": "[3]; 1-mo. post, SD 21%, only participants with mild TBI", "result": "82% ±"},
      {"measurement": "HAM-A % Reduction vs Baseline, mean", "setting": "[3]; 1-mo. post, SD 23%, only participants meeting diagnostic criteria per MINI", "result": "80% ±"},
      {"measurement": "HAM-A score, mean", "setting": "[3]; 1-wk post, SD 3.4, baseline 23.8 ± 7.6, N 14, only participants meeting diagnostic criteria per MINI at baseline", "result": 4.2},
      {"measurement": "HAM-A score, mean", "setting": "[3]; 1-wk. post, SD 3.3, baseline 20.7 ± 8.6, N 28, only participants with mild TBI", "result": 3.3},
      {"measurement": "HAM-A % Reduction vs Baseline, mean", "setting": "[3]; 1-wk. post, SD 14%, only participants meeting diagnostic criteria per MINI", "result": "82% ±"},
      {"measurement": "HAM-A % Reduction vs Baseline, mean", "setting": "[3]; 1-wk. post, SD 19%, only participants with mild TBI", "result": "82% ±"},
      {"measurement": "White matter hypointensities (corrected for cerebral white matter), baseline vs. one month post treatment", "setting": "[4]; 17 subjects, two-tailed p = 0.0789, left tailed p = 0.9606, right-tailed p = 0.0394", "result": "Two-tailed: no significant differences"},
      {"measurement": "Subcortical Gray Matter volume, baseline vs. one month post treatment", "setting": "[4]; 17 subjects, two-tailed p = 0.0949, left tailed p = 0.0475, alpha = 0.05", "result": "Two-tailed: no significant differences"},
      {"measurement": "Total Gray Matter volume, baseline vs. one month post treatment", "setting": "[4]; 17 subjects, two-tailed p = 0.4755, alpha = 0.05", "result": "Two-tailed: no significant differences"},
      {"measurement": "Cortical Gray Matter volume, baseline vs. one month post treatment", "setting": "[4]; 17 subjects, two-tailed p = 0.4847, alpha = 0.05", "result": "Two-tailed: no significant differences"},
      {"measurement": "Regional brain volume increases, baseline to one month after treatment", "setting": "[4]; 47 brain regions (FIG. 8A)", "result": "Increases in volume were observed in the cerebral white mater (left) and the left ventral DC"},
      {"measurement": "Regional cortical thickness change", "setting": "[4]; baseline to one month after treatment (FIG. 8B)", "result": "Increases in cortical thickness one-month after treatment was observed in left entorhinal cortex, left-lateral-orbitofrontal pole, parahippocampal gyrus (bilaterally), left insular cortex, and right-pars triangularis (inferior frontal gyrus)"},
      {"measurement": "Left hemisphere mean thickness", "setting": "[4]; one month after treatment vs baseline, two-tailed p=0.7146, alpha=0.05", "result": "no significant difference from baseline"},
      {"measurement": "Right hemisphere mean thickness", "setting": "[4]; one month after treatment vs baseline, two-tailed, alpha=0.05", "result": "no significant difference from baseline"},
      {"measurement": "Inspection of brain volume and thickness for damage", "setting": "[4]; treated subjects, one month after treatment", "result": "no apparent damage to the brain"},
      {"measurement": "Lag structure change (BOLD fMRI)", "setting": "[5]", "result": "relative slowing"},
      {"measurement": "Cortical neuron dendritic arbor complexity", "setting": "[6]", "result": "increases cortical neuron dendritic arbor complexity"},
      {"measurement": "Incidence of cardiac arrest in people treated", "setting": "[7]", "result": "Approximately 1 in 300 people"},
      {"measurement": "Neurotoxicity reported in humans", "setting": "[7]", "result": "only transient ataxia has been reported in humans"},
      {"measurement": "QT interval prolongation", "setting": "[7]", "result": "instances of subsequent fatal arrhythmia"}
    ]}
  ]
}
